Data reported in patent US10751390B2, “Lipidated peptides as neuroprotective agents” (USTAV ORGANICKE CHEMIE A BIOCHEMIE AV CR, V.V.I., priority 2014, dated 2020).

Legend:
Format in all cases: in vivo
Tau protein [1] = assay: Western blot of Tau phosphorylation in hippocampi of 6-month-old MSG mice after 14-day treatment; settings: 14 days SC twice a day, liraglutide 0.2 mg/kg, vs saline
Method: (§1) Groups of MSG mice (n=10 animals per group) were for 14 days SC administered with liraglutide at a dose 0.2 mg/kg, or palmitoylated analog of PrRP31 at a dose 5 mg/kg, or palmitoylated analog with PrRP31 with dichlorophenylalanin in position 31 at a dose 5 mg/kg dissolved in saline, twice a day, at 8 a.m. and 6:00 p.m. Control mice (n=10 animals per group), NMRI and MSG, were injected in the same manner with saline (the volume was always 0.2 ml/mouse).
(§2) Overnight (15 hours) fasted mice with ad libitum access to water were weighed, and their plasma glucose concentration was measured using Glucocard glucometer. After decapitation, the brains were dissected on ice, and cut between hemispheres. For immunohistochemical staining the half of the brain was fixed for 24 hours in 4% paraformaldehyde and dehydrated in 70% ethanol, afterward. For the western blot (WB) analysis, the hippocampus was dissected from the second half of the brain, and lysed in cold lysis buffer (62.5 mmol·l^−1 Tris-HCl, pH 6.8 with 1% sodium deoxycholate, 1% Triton X-100 Complete, 50 mmol·l^−1 NaF, 1 mmol·l^−1 Na3VO4), homogenized, sonicated 10 minutes and stored at −20° C. The blood plasma was prepared, and stored at −20° C.
(§3) In homogenized hippocampi the protein level was measured using BCA kit (Pierce, Thermo Fisher Scientific, Rockfor, Ill., USA), then the samples were diluted in sample buffer (62.5 mmol/l Tris-HCl pH 6.8, 10% glycerol, 2% SDS, 0.01% bromfenol blue, 5% merkaptoethanol, 50 mmol/l NaF and 1 mmol/l Na3VO4) to final concentration […]. WB method and analysis of the results were performed according Nagelová et al. (Nagelova et al., 2014).

Tau protein [2] = assay: Immunohistochemical fluorescent double staining of Tau phosphorylation in CA1 region of hippocampi of MSG mice; settings: 6-month-old MSG mice, 14 days SC twice a day; liraglutide 0.2 mg/kg, PrRP31 analog 5 mg/kg; epitopes Thr212 and Ser202/Thr205
Method: as §1, §2
To verify the results obtained from WB analysis the immunohistochemical staining was performed. Ten micrometer (10 μm) thick sections were prepared at INSERM, Lille, France. […]

[3] = system: insulin signaling cascade (PDK-1, Akt, GSK-3β); assay: Western blot of insulin signaling cascade in hippocampi of 6-month-old MSG mice after 14-day treatment; settings: 14 days SC twice a day, liraglutide 0.2 mg/kg, vs saline
Method: as §1, §2, §3

Q: What does the source list for “(N-palm)SRTHRHSMEIRTPDINPAWYASRGIRPVGRF-NH2 [palmitoylated analog of PrRP31]”?
A: not-phosphorylated Tau (antibody Tau1) (Tau protein [1]; PrRP31 analog 5 mg/kg): did not show any significant differences among groups; phosphorylation of Tau protein at epitope Ser396 (Tau protein [1]; PrRP31 analogs 5 mg/kg): decreased phosphorylation; phosphorylation of Tau protein at epitope Thr212 (Tau protein [1]; PrRP31 analogs 5 mg/kg): decreased phosphorylation; phosphorylation of Tau protein at epitope Thr231 (Tau protein [1]; PrRP31 analogs 5 mg/kg): decreased phosphorylation; Tau phosphorylation in hippocampal region CA1 (fluorescent signal) (Tau protein [2]): decreased; phosphorylation of Akt (Thr308) ([3]; PrRP31 analog 5 mg/kg): more pronounced phosphorylation; activation of kinases implicated in insulin signaling cascade ([3]; PrRP31 analogs 5 mg/kg): Enhanced activation; phosphorylation of GSK-3β (Ser9) ([3]; PrRP31 analogs 5 mg/kg): more pronounced phosphorylation
